Several values for one entry are separate records, joined by “and”; a condition that tells them apart may be missing. Identical values can stand only once. Marks after values point to notes of the source that are not given here. Blank lines part the entries; values can stand above or below the molecule they belong to.
Tests used:
MDCK-MDR1 cell line = assay: MDCK-MDR1 permeability assay; type: in vitro ADME; conditions: apical-to-basolateral, with P-gp inhibitor elacridar (2 μM), 60 min
Procedure: Permeability measurements were conducted according to the Cyprotex protocol using the MDCK-MDR1 cell line obtained from the NIH (Rockville, Md., USA). […] The cells in this assay form a cohesive sheet of a single cell layer filing the surface area of the culture dish, also known as a confluent monolayer, and on day four the test compound was added to the apical side of the membrane and the transport of the compound across the monolayer was monitored over a time period of 60 min.
Test compounds were dissolved in DMSO at a concentration of 10 mM. The dosing solutions were prepared by diluting test compound with assay buffer (Hanks Balanced Salt Solution), pH 7.4, at a final concentration of 5 μM. For assessment of apical to basolateral (“A-B”) permeability, buffer was removed from the apical compartment and replaced with test compound dosing solution with or without the permeability glycoprotein (“PgP”, “P-gP”, “Pgp” or “P-gp”) inhibitor elacridar (2 μM). For assessment of basolateral to apical (“B-A”) permeability, buffer was removed from the companion plate and replaced with test compound dosing solution. Incubations were carried out in duplicate at 37° C. in an atmosphere of 5% CO2 with a relative humidity of 95%. Each assay included the reference markers propranolol (high permeability) and prazosin (PgP substrate). After incubation for 60 minutes, apical and basolateral samples were diluted and test compounds quantified by LC/MS/MS using an 8-point calibration in the range 0.0039 to 3 μM with appropriate dilution of the samples (receiver dilution factor=1; donor and Co dilution factor=10). The permeability coefficient (Papp) for each compound was calculated from the following equation: Papp=(dQ/dt)/(C0×S), where dQ/dt is the rate of permeation of the drug across the cells, Co is the donor compartment concentration at time zero, and S is the area of the cell monolayer.
Papp(A-B) gives an indication of permeation extent across the cells in this assay, which is envisaged to model the transcellular transport across Pgp-expressing cells, such as Pgp-expressing gastrointestinal tract cells.

[1] = In vivo p.o. dosing (Protocols 1 and 2): plasma and colon concentrations; set-up: species or system C57BL/6 mice; conditions: mice, 25 mg/kg p.o. in 20% HPβCD; for Plasma Concentration After p.o. Dosing, Time = 0.5 h, Mean: 0.5 h post dose; for Plasma Concentration After p.o. Dosing, Time = 2 h, Mean: 2 h post dose; for Plasma Concentration After p.o. Dosing, Time = 4 h, Mean: 4 h post dose; for Colon Concentration After p.o. Dosing, Time = 4 h, Mean: colon 4 h post dose
Procedure: These protocols are described below under the heading In vivo Studies.
(§1) Three non-fasted female C57BL/6 mice were orally administered test compound at a dose of 25 mg/kg p.o. as a solution in 20% hydroxypropyl-beta-cyclodextrin (HPβCD) at a dose volume of 5 mL/kg. Blood samples were collected at 0.5, 2, and 4 h post dose via retro-orbital bleed or venipuncture of the dorsal metatarsal vein. Blood samples were collected into tubes containing anticoagulant (Heparin-Na) and placed on wet ice. The plasma fraction was separated by centrifugation and frozen at −20° C. for up to 4 h and −80° C. after 4 h unless analyzed shortly after sample collection. Colon samples were collected at 4 h post dose. From the beginning of the cecum, a 4-6 cm sample of the colon was dissected, cut open on the longitudinal axis, and the solid contents removed by flushing with 2 mL of saline. The colon was further washed by putting it in 5 mL of saline and shaken for 5 seconds. The colon sample was then patted dry, weighed, and homogenized as 1 part tissue (g) to 4 parts HPLC grade water (mL). Concentrations of the compound in plasma and colon homogenate were determined using a qualified liquid chromatography-triple quadrupole mass spectrometry (LC-MS/MS) method.
as §1, with “HPβCD” for “hydroxypropyl-beta-cyclodextrin (HPβCD)”, “or” for “or venipuncture of the”, “2 cm below” for “the beginning of”, “4” for “4-6”

[2] = In vivo intracolonic (i.c.) dosing (Protocol 3): plasma and colon concentrations; set-up: species or system C57BL/6 mice; conditions: mice, 5 mg/kg intracolonic in 20% HPβCD; for Plasma Concentration After i.c. Dosing, Time = 4 h, Mean: 4 h post dose; for Plasma Concentration After i.c. Dosing, Time = 2 h, Mean: 2 h post dose
Excerpt: Plasma and colon concentration results were obtained by following Protocol 1 using venipuncture of dorsal metatarsal vein bleed for Compounds (B), (C), and Examples 6 and 11. Plasma and colon concentration results were obtained by following Protocol 2 using retro-orbital bleed for Compounds (A), and Examples 1, and 3-5 and Protocol 2 using venipuncture of the dorsal metatarsal vein for Examples 2, 7-10, and 12. Plasma and colon concentration results were obtained by following Protocol 3 for Examples 1, 3 and 4. These protocols are described below under the heading In vivo Studies.
Intracolonic (IC) dose group: Following anesthesia with isoflurane by inhalation, three non-fasted female C57BL/6 mice were administered the compound intracolonically through a small incision in the abdominal wall using a syringe and needle at a dose of 5 mg/kg as a solution in 20% HPβCD at a dose volume of 1 mL/kg. Blood samples were collected at 0.5, 2, and 4 h post dose via retro-orbital bleed. Blood samples were collected into tubes containing anticoagulant (Heparin-Na) and placed on wet ice. The plasma fraction was separated by centrifugation and frozen at −20° C. for up to 4 h and −80° C. after 4 h unless analyzed shortly after sample collection. Colon samples were collected at 4 h post dose. From 2 cm below the cecum, a 4-cm sample of the colon was dissected, cut open on the longitudinal axis, and the solid contents removed by flushing with 2 mL of saline. The colon was further washed by putting it in 5 mL of saline and shaken for 5 seconds. The colon sample was then patted dry, weighed, and homogenized as 1 part tissue (g) to 4 parts HPLC grade water (mL). Concentrations of the compound in plasma and colon homogenate were determined using a qualified liquid chromatography-triple quadrupole mass spectrometry (LC-MS/MS) method. This protocol was used to evaluate IC dosing of the following test compounds: Examples 1, 3, and 4.

Compound: N#CCC12CCC(NC(=O)Cc3nc4cnc5[nH]ccc5c4n3[C@H]3CC[C@H](CC#N)CC3)(CC1)C2 [Ex. 10, N-(4-(Cyanomethyl)bicyclo[2.2.1]heptan-1-yl)-2-(1-((1r,4r)-4-(cyanomethyl)cyclohexyl)-1,6-dihydroimidazo[4,5-d]pyrrolo[2,3-b]pyridin-2-yl)acetamide]
MDCK-MDR1 P^eapp(A-B) @ 5 μM (MDCK-MDR1 cell line): 1.1 10^−6 cm/sec

Compound: N#CC[C@H]1CC[C@H](n2c(CC(=O)NCC3CCOCC3)nc3cnc4[nH]ccc4c32)CC1 [Ex. 6, 2-(1-((1r,4r)-4-(Cyanomethyl)cyclohexyl)-1,6-dihydroimidazo[4,5-d]pyrrolo[2,3-b]pyridin-2-yl)-N-((tetrahydro-2H-pyran-4-yl)methyl)acetamide]
Plasma Concentration After p.o. Dosing, Time = 4 h, Mean [1]: 1.7^# ng/mL | MDCK-MDR1 P^eapp(A-B) @ 5 μM (MDCK-MDR1 cell line): 0.9 10^−6 cm/sec and 1.1 10^−6 cm/sec

Compound: C[C@@H](O)c1nc2cnc3[nH]ccc3c2n1[C@H]1CC[C@H](CC#N)CC1 [C]
Plasma Concentration After p.o. Dosing, Time = 0.5 h, Mean [1]: 547.0 ng/mL | Plasma Concentration After p.o. Dosing, Time = 2 h, Mean [1]: 130.2 ng/mL | Plasma Concentration After p.o. Dosing, Time = 4 h, Mean [1]: 16.7 ng/mL | Colon Concentration After p.o. Dosing, Time = 4 h, Mean [1]: 7776.7 ng/g

Compound: CC(C)(C#N)CNC(=O)Cc1nc2cnc3[nH]ccc3c2n1[C@H]1CC[C@H](CC#N)CC1 [Ex. 7, N-(2-Cyano-2-methylpropyl)-2-(1-((1r,4r)-4-(cyanomethyl)cyclohexyl)-1,6-dihydroimidazo[4,5-d]pyrrolo[2,3-b]pyridin-2-yl)acetamide]
MDCK-MDR1 P^eapp(A-B) @ 5 μM (MDCK-MDR1 cell line): 1.2 10^−6 cm/sec

Compound: Cn1cc(NC(=O)Cc2nc3cnc4[nH]ccc4c3n2[C@H]2CC[C@H](CC#N)CC2)cn1 [Ex. 9, 2-(1-((1r,4r)-4-(Cyanomethyl)cyclohexyl)-1,6-dihydroimidazo[4,5-d]pyrrolo[2,3-b]pyridin-2-yl)-N-(1-methyl-1H-pyrazol-4-yl)acetamide]
MDCK-MDR1 P^eapp(A-B) @ 5 μM (MDCK-MDR1 cell line): 0.6 10^−6 cm/sec

Compound: N#CC[C@H]1CC[C@H](n2c(CC(=O)NCC3CC3)nc3cnc4[nH]ccc4c32)CC1 [Ex. 3, 2-(1-((1r,4r)-4-(Cyanomethyl)cyclohexyl)-1,6-dihydroimidazo[4,5-d]pyrrolo[2,3-b]pyridin-2-yl)-N-(cyclopropylmethyl)acetamide]
Plasma Concentration After i.c. Dosing, Time = 2 h, Mean [2]: ^∧ | Plasma Concentration After i.c. Dosing, Time = 4 h, Mean [2]: ^∧ | MDCK-MDR1 P^eapp(A-B) @ 5 μM (MDCK-MDR1 cell line): 2.3 10^−6 cm/sec and 1.6 10^−6 cm/sec

Compound: N#CC[C@H]1CC[C@H](n2c(CC(=O)NC3CCOCC3)nc3cnc4[nH]ccc4c32)CC1 [Ex. 5, 2-(1-((1r,4r)-4-(cyanomethyl)cyclohexyl)-1,6-dihydroimidazo[4,5-d]pyrrolo[2,3-b]pyridin-2-yl)-N-(tetrahydro-2H-pyran-4-yl)acetamide]
MDCK-MDR1 P^eapp(A-B) @ 5 μM (MDCK-MDR1 cell line): 0.7 10^−6 cm/sec and 0.5 10^−6 cm/sec

Compound: CC(C)(O)CNC(=O)Cc1nc2cnc3[nH]ccc3c2n1[C@H]1CC[C@H](CC#N)CC1 [Ex. 1, 2-(1-((1r,4r)-4-(Cyanomethyl)cyclohexyl)-1,6-dihydroimidazo[4,5-d]pyrrolo[2,3-b]pyridin-2-yl)-N-(2-hydroxy-2-methylpropyl)acetamide]
Plasma Concentration After i.c. Dosing, Time = 2 h, Mean [2]: ^∧ | Plasma Concentration After i.c. Dosing, Time = 4 h, Mean [2]: ^∧

Compound: N#CC[C@H]1CC[C@H](n2c(CC(=O)NCC3(O)CCC3)nc3cnc4[nH]ccc4c32)CC1 [Ex. 8, 2-(1-((1r,4r)-4-(Cyanomethyl)cyclohexyl)-1,6-dihydroimidazo[4,5-d]pyrrolo[2,3-b]pyridin-2-yl)-N-((1-hydroxycyclobutyl)methyl)acetamide]
MDCK-MDR1 P^eapp(A-B) @ 5 μM (MDCK-MDR1 cell line): 0.5 10^−6 cm/sec

Compound: N#CCC1CCC(n2c(-c3c[nH]cn3)nc3cnc4[nH]ccc4c32)CC1 (stereo not shown) [Ex. 2, 2-((1r,4r)-4-(2-(1H-Imidazol-4-yl)imidazo[4,5-d]pyrrolo[2,3-b]pyridin-1(6H)-yl)cyclohexyl)acetonitrile]
MDCK-MDR1 P^eapp(A-B) @ 5 μM (MDCK-MDR1 cell line): 1.6 10^−6 cm/sec

More lines, now with the values ahead:

Plasma Concentration After p.o. Dosing, Time = 0.5 h, Mean [1]: 347.0 ng/mL | Plasma Concentration After p.o. Dosing, Time = 2 h, Mean [1]: 69.1 ng/mL | Plasma Concentration After p.o. Dosing, Time = 4 h, Mean [1]: 84.5 ng/mL | Colon Concentration After p.o. Dosing, Time = 4 h, Mean [1]: 895.0 ng/g
Compound: Cc1nc2cnc3[nH]ccc3c2n1[C@H]1CC[C@H](CC#N)CC1 [A]

Plasma Concentration After p.o. Dosing, Time = 2 h, Mean [1]: ^∧ | Plasma Concentration After p.o. Dosing, Time = 4 h, Mean [1]: ^∧ | MDCK-MDR1 P^eapp(A-B) @ 5 μM (MDCK-MDR1 cell line): 0.8 10^−6 cm/sec
Compound: N#CC[C@H]1CC[C@H](n2c(CC(=O)Nc3cc[nH]n3)nc3cnc4[nH]ccc4c32)CC1 [Ex. 11, 2-(1-((1r,4r)-4-(Cyanomethyl)cyclohexyl)-1,6-dihydroimidazo[4,5-d]pyrrolo[2,3-b]pyridin-2-yl)-N-(1H-pyrazol-3-yl)acetamide]

Plasma Concentration After i.c. Dosing, Time = 4 h, Mean [2]: ^∧ | MDCK-MDR1 P^eapp(A-B) @ 5 μM (MDCK-MDR1 cell line): 0.5 10^−6 cm/sec
Compound: N#CCCNC(=O)Cc1nc2cnc3[nH]ccc3c2n1[C@H]1CC[C@H](CC#N)CC1 [Ex. 4, N-(2-Cyanoethyl)-2-(1-((1r,4r)-4-(cyanomethyl)cyclohexyl)-1,6-dihydroimidazo[4,5-d]pyrrolo[2,3-b]pyridin-2-yl)acetamide]

Plasma Concentration After p.o. Dosing, Time = 0.5 h, Mean [1]: 352.7 ng/mL | Plasma Concentration After p.o. Dosing, Time = 2 h, Mean [1]: 66.3 ng/mL | Plasma Concentration After p.o. Dosing, Time = 4 h, Mean [1]: 11.3 ng/mL | Colon Concentration After p.o. Dosing, Time = 4 h, Mean [1]: 6076.7 ng/g
Compound: N#CC[C@H]1CC[C@H](n2c(CO)nc3cnc4[nH]ccc4c32)CC1 [B]

MDCK-MDR1 P^eapp(A-B) @ 5 μM (MDCK-MDR1 cell line): 0.6 10^−6 cm/sec
Compound: N#CC[C@H]1CC[C@H](n2c(CC(=O)NCC3(O)CC3)nc3cnc4[nH]ccc4c32)CC1 [Ex. 12, 2-(1-((1r,4r)-4-(Cyanomethyl)cyclohexyl)-1,6-dihydroimidazo[4,5-d]pyrrolo[2,3-b]pyridin-2-yl)-N-((1-hydroxycyclopropyl)methyl)acetamide]
